Reference: the NIST ThermoML archive (doi:10.1021/je7004006)
Numbers after ± are expanded uncertainties.

Test: molar heat capacity at constant pressure
Details: 101.33 kPa, Crystal, Small (less than 1 g) adiabatic calorimetry

O=C([O-])c1cccnc1.O=C([O-])c1cccnc1.O=C([O-])c1cccnc1.[Cr+3] [chromium nicotinate]
Details | molar heat capacity at constant pressure [J/K/mol]
78.3 K | 123.81 ± 0.9
79.58 K | 125.36 ± 0.91
80.78 K | 127.92 ± 0.93
83.27 K | 130.33 ± 0.95
85.75 K | 132.64 ± 0.96
87.67 K | 134.61 ± 0.98
88.87 K | 136.08 ± 0.99
90.15 K | 137.63 ± 0.98
92 K | 139.67 ± 1
93.27 K | 141.41 ± 1
94.62 K | 142.98 ± 1
95.9 K | 144.85 ± 1
97.32 K | 146.89 ± 1
98.81 K | 148.83 ± 1.1
100.39 K | 151.39 ± 1.1
102.33 K | 154.15 ± 1.1
104.42 K | 157.04 ± 1.1
106.52 K | 159.91 ± 1.1
108.56 K | 162.72 ± 1.1
110.57 K | 165.32 ± 1.2
112.55 K | 168.16 ± 1.2
114.51 K | 171.37 ± 1.2
116.44 K | 174.23 ± 1.2
118.51 K | 177.09 ± 1.2
120.7 K | 180.42 ± 1.3
122.86 K | 183.21 ± 1.3
125 K | 186.13 ± 1.3
127.12 K | 189.86 ± 1.3
129.2 K | 192.42 ± 1.3
131.27 K | 194.83 ± 1.4
133.29 K | 197.19 ± 1.4
135.34 K | 199.39 ± 1.4
137.35 K | 202.21 ± 1.4
139.34 K | 205.13 ± 1.4
141.27 K | 208.55 ± 1.4
143.29 K | 211.67 ± 1.5
145.18 K | 214.31 ± 1.5
147.24 K | 217.25 ± 1.5
149.26 K | 220.52 ± 1.5
151.28 K | 222.96 ± 1.5
153.41 K | 226.31 ± 1.6
155.54 K | 229.13 ± 1.6
157.62 K | 231.64 ± 1.6
159.7 K | 235.03 ± 1.6
161.75 K | 238.11 ± 1.6
163.85 K | 240.81 ± 1.7
165.85 K | 243.11 ± 1.7
167.87 K | 246.05 ± 1.7
169.89 K | 248.77 ± 1.7
171.91 K | 251.87 ± 1.7
173.84 K | 254.46 ± 1.8
175.86 K | 257.44 ± 1.8
177.79 K | 260.13 ± 1.8
179.73 K | 262.72 ± 1.8
181.66 K | 265.17 ± 1.8
183.6 K | 268.44 ± 1.9
185.62 K | 271.07 ± 1.9
187.71 K | 274.19 ± 1.9
189.73 K | 277.14 ± 1.9
191.82 K | 280.35 ± 1.9
193.92 K | 283.85 ± 1.9
196.02 K | 286.68 ± 2
198.11 K | 289.66 ± 2
200.29 K | 293.01 ± 2
202.31 K | 295.75 ± 2
204.32 K | 298.67 ± 2
206.42 K | 301.71 ± 2.1
208.43 K | 304.98 ± 2.1
210.45 K | 308.04 ± 2.1
212.47 K | 310.72 ± 2.1
214.4 K | 313.38 ± 2.1
216.42 K | 316.97 ± 2.2
218.35 K | 320.03 ± 2.2
220.29 K | 324.12 ± 2.2
222.3 K | 325.43 ± 2.2
224.24 K | 328.85 ± 2.2
226.09 K | 332.72 ± 2.3
228.83 K | 337.34 ± 2.3
231.74 K | 341.35 ± 2.3
234.72 K | 345.07 ± 2.4
237.78 K | 349.99 ± 2.4
241.01 K | 354.61 ± 2.4
244.07 K | 360.78 ± 2.5
247.13 K | 364.57 ± 2.5
250.28 K | 369.63 ± 2.5
253.26 K | 373.95 ± 2.5
256.33 K | 378.71 ± 2.6
259.39 K | 383.32 ± 2.6
262.45 K | 388.08 ± 2.6
265.52 K | 392.41 ± 2.7
268.5 K | 397.46 ± 2.7
271.49 K | 402.07 ± 2.7
274.55 K | 406.39 ± 2.8
277.77 K | 410.55 ± 2.8
280.84 K | 415.32 ± 2.8
283.98 K | 420.08 ± 2.9
287.05 K | 425.14 ± 2.9
290.11 K | 429.31 ± 2.9
293.25 K | 432.73 ± 2.9
296.24 K | 436.89 ± 3
299.14 K | 441.06 ± 3
302.2 K | 445.38 ± 3
305.27 K | 449.99 ± 3
308.25 K | 453.86 ± 3.1
311.39 K | 458.92 ± 3.1
314.62 K | 464.13 ± 3.1
317.68 K | 468.44 ± 3.2
320.91 K | 472.31 ± 3.2
324.13 K | 476.78 ± 3.2
327.12 K | 480.35 ± 3.2
329.78 K | 484.81 ± 3.3
332.44 K | 488.54 ± 3.3
335.1 K | 492.26 ± 3.3
337.84 K | 495.98 ± 3.4
340.5 K | 499.71 ± 3.4
343.24 K | 503.86 ± 3.4
346.06 K | 507.44 ± 3.4
348.97 K | 511.45 ± 3.5
351.79 K | 514.88 ± 3.5
354.53 K | 518.75 ± 3.5
357.43 K | 523.81 ± 3.5
360.34 K | 528.42 ± 3.6
363 K | 532.73 ± 3.6
365.9 K | 536.45 ± 3.6
368.64 K | 539.88 ± 3.6
371.37 K | 543.64 ± 3.7
374.08 K | 547.89 ± 3.7
376.98 K | 552.51 ± 3.7
379.69 K | 556.21 ± 3.8
382.38 K | 559.42 ± 3.8
385.12 K | 562.83 ± 3.8
387.85 K | 566.51 ± 3.8
390.52 K | 569.91 ± 3.8
